Entries after “also recorded” stand apart in the source; their conditions may differ. Where two headings read alike, the source gives them in different places.
How the values were obtained:
[1] = PTX3 levels in bronchoalveolar lavage fluids after i.n. administration; format: in vivo, mice; conditions: 0.5 mg/kg i.n.
Method: To assess whether PTX3 may have a beneficial effect in otherwise susceptible mice, we used BM-transplanted mice whose substantial susceptibility to IA is well documented (15). The mice were subjected to treatments with different doses of PTX3 administered intranasally or intraperitoneally, before, concomitantly with or after infection. The doses were selected on the basis of preliminary experiments showing that PTX3 levels (at the dose of 0.5 mg/kg/i.n.) were high in bronchoalveolar lavage fluids for at least 24 h (from 70 to 25 ng/ml from 2 to 24 h) and that they were higher than those observed in mice with IA one day after infection (from 2 to 15 ng/ml) (20 and unpublished data). The survival parameters and fungal load in the lung and brain were then recorded and analysed in comparison with those obtained in mice treated with different doses of AmBisome or Fungizone. […] A dose-dependent effect was detected for this administration period, in that the protective efficacy of PTX3 was lost at the dose of 0.04 mg/kg. […] No difference was observed between the two administration routes. […] These characteristics were not observed in the mice treated with PTX3, the lungs of which were characterised by healing infiltrates of poly- and mononuclear inflammatory cells with no evidence of fungal growth or destruction of the bronchial wall (FIG. 3B).

[2] = tested on: CD4+, CD8+, Gr-1+, F4-80+ cells; assay: Cell recovery by FACS analysis of lung and spleen cells and blood leukocyte count in mice with invasive aspergillosis; format: in vivo
Method: BM-transplanted mice, generated as described in detail in the legend to FIG. 1, were infected intranasally with 2×10^7 Aspergillus conidia and treated (+) or untreated (−) with 1 mg/kg PTX3 intraperitoneally from the day of infection and continuing for another 5 days. The numbers refer to the percentage of positive cells, reported by the FACS analysis in the lungs (A) and in the spleen (B), 3 or 6 days after infection.
The phenotype of the various cell types was assessed using murine antibodies against the antigens indicated with rat anti-mouse antibodies conjugated with FITC from PharMingen (San Diego, Calif.). Prior to immunochemical identification, the FcR was saturated by incubation of the cells with 5% normal serum. Histotype antibodies were used as controls. The analysis was done by means of FACScan (Becton Dickinson, Mountain View, Calif.). The data obtained were evaluated as percentage of positive cells. The histograms are representative of one of four independent experiments.

Aspergillus conidia [3] = assay: Conidia-killing activity of effector phagocytes from treated mice; format: in vivo; conditions: treated vs untreated mice; data not shown
A. fumigatus [4] = assay: In-vitro direct killing activity on the fungus; format: cell-based; conditions: data not shown
IFN-γ and IL-4 mRNA = assay: Cytokine gene expression on CD4+ spleen cells by real-time RT-PCR; format: in vivo, mice; conditions: prophylactic and therapeutic treatment
Method: (§1) BM-transplanted mice, generated as described in detail in the legend to FIG. 1, were infected intranasally with 2×10^7 Aspergillus conidia and treated with 1 mg/kg PTX3 intraperitoneally both before infection (oblique line bars) and from the day of infection and continuing for another 3 days (dotted bars). At 3 days after infection, IL-12 p70 and IL-10 levels were determined by specific ELISA analyses in bronchoalveolar lavage fluids (A), the number of CD4^+ T spleen cells producing cytokines were numbered by ELISPOT analysis (B) and the gene expression of cytokine on CD4^+ spleen cells was determined by real-time PCR. Bars indicate standard errors. *P<0.05, infected vs. non-infected mice; **P<0.05, PTX3-treated vs untreated mice. Non-infected mice (white bars); infected mice (black bars).
Total RNA (5 μg, extracted from CD4^+ T spleen cells using the RNeasy Mini Kit (QIAGEN S.p.A., Milan, Italy)) was retrotranscribed with Sensiscript reverse transcriptase (QIAGEN) according to the manufacturer's indications. The primers for PCR were obtained from Applied Biosystems (Foster City, Calif.). […] The data normalised with RNA 18S were expressed as relative mRNA of the cytokines examined (ΔΔCt) and compared with those of naive mice (10).

A. fumigatus [5] = format: in vivo, mice
Method: Lethally irradiated C3H/HeJ mice were infused with T-cell-depleted BM cells of BALB/c mice (2×10^6) one week before intra-nasal infection with 2×10^7 Aspergillus conidia. The mice were treated with PTX3 or with the polyenes, at the doses and via the routes indicated, 5 days before (Pre-) or after (Post-) or concomitantly with infection (Con.), in each case repeating the administration for the next 5 days. Resistance to the infection was assessed as percentage survival. The fungal load in the lungs, brains and kidneys of the infected mice was quantified by serial plating on the Sabouraud dextrose medium of the lavages of the various organs and the results were expressed as colony forming units (CFU) (mean±SE) in samples taken from the organs indicated and performed at the time of death for the mice that died […] or otherwise at 6 days after infection. The groups consisted of 6 animals.
BM-transplanted mice, generated as described in detail in the legend to FIG. 1, were infected intranasally with 2×10^7 Aspergillus conidia and treated intraperitoneally with each single agent alone or in combination, before (Pre-) or after (Post-) infection. The doses were: 0.04 and 0.2 mg/kg PTX3 before or after infection, respectively; 1 mg/kg AmBisome and 2 mg/kg Fungizone.
Bone marrow (BM) cells from BALB/c donor mice were prepared by differential agglutination with soy agglutinin.
The A. fumigatus strain was supplied by a fatal case of pulmonary aspergillosis at the Institute for Infectious Diseases of the University of Perugia (13). For infection, the mice were lightly anaesthetised by means of the inhalation of ethyl ether prior to the instillation of a suspension of 2×10^7 conidia/20 μL saline solution, which was delivered slowly through the nostrils using a micropipette with a sterile disposable tip. This procedure was repeated for 3 consecutive days. For reinfection, the mice surviving the primary intranasal (i.n.) infection were inoculated with 5×10^5 of Aspergillus conidia i.v. The fungal load in the lungs, brain and kidneys of the infected mice was quantified by serial plating on Sabouraud dextrose medium and the results (mean±SE) were expressed as colony forming units (CFU) in samples taken from the organs indicated. For selected experiments, the fungal growth was also evaluated by chitin analysis (10). For the histological analysis, the lung was removed and immediately fixed in formalin. Sections (3 to 4 μm) of tissues embedded in paraffin were stained with the periodic acid Schiff base procedure (13, 20).
PTX3 (SIGMA-Tau, Pomezia, Rome, Italy) was purified by immunoaffinity chromatography from the culture supernatants of CHO cells CHO transfected with PTX3 and monitored for the absence of endotoxins (20). PTX3, amphotericin B deoxycholate (D-AmB, Fungizone, Bristol-Myers Squibb, Sermoneta, Italy) and liposomal amphotericin B (L-AmB, AmBisome, GILEAD, Milan, Italy) were diluted to the desired concentrations in sterile saline solution (PTX3) or in a 5% glucose-water solution.

A. fumigatus [6] = assay: Lung histology (periodic acid Schiff) in mice with invasive aspergillosis; format: in vivo; conditions: 1 mg/kg i.p. from day of infection and for another 5 days; 6 days after infection
Method: Periodic Schiff base sections were prepared from the lungs of the BM-transplanted mice infected with Aspergillus conidia either untreated (A) or treated (B) with 1 mg/kg PTX3 intraperitoneally from the day of infection and continuing for another 5 days. Numerous Aspergillus hyphae (arrows) infiltrate the pulmonary parenchyma, with extensive parenchymal destruction and strong signs of damage to the bronchial wall, and necrosis and poor cell recruitment are observed in the lungs of the untreated mice ([…]). […] Enlargement, ×100 in panels A and B; ×400 in insets.
(§2) The A. fumigatus strain was supplied by a fatal case of pulmonary aspergillosis at the Institute for Infectious Diseases of the University of Perugia (13). […] For reinfection, the mice surviving the primary intranasal (i.n.) infection were inoculated with 5×10^5 of Aspergillus conidia i.v. The fungal load in the lungs, brain and kidneys of the infected mice was quantified by serial plating on Sabouraud dextrose medium and the results (mean±SE) were expressed as colony forming units (CFU) in samples taken from the organs indicated. For selected experiments, the fungal growth was also evaluated by chitin analysis (10). […]

[7] = tested on: IL-12 p70, IL-10, TNF-α, IFN-γ, IL-4; assay: Cytokine levels (ELISA) and cytokine-producing CD4+ T spleen cells (ELISPOT) in mice with invasive aspergillosis; format: in vivo
Method: as §1
BM-transplanted mice, generated as described in detail in the legend to FIG. 1, were infected intranasally with 2×10^7 Aspergillus conidia and treated intraperitoneally with each individual agent alone or in combination after infection. The dosages were as described in detail in the legend to FIG. 6. […] levels (pg/ml) were determined in bronchoaleveolar lavage fluids 3 days after infection (A) and IFN-γ and IL-4 levels (pg/ml) in the culture supernatants of the antigen-activated spleen cells (B) performed at the time of death for those mice that died before, or otherwise at 6 days after infection. Bars indicate standard errors. (−, untreated mice). *P<0.05 treated vs. untreated mice; **P<0.05, combination treatment with PTX3+Fungizone (D-AmB) vs D-AmB alone; ***P<0.05, combination treatment with PTX3+AmBisome (L-AmB) vs each single treatment alone.
The levels of cytokines in the bronchoalveolar lavage fluids and in the supernatants of the cultures of spleen cells stimulated with Aspergillus (9, 10), thermally […], were determined using the ELISA Kit (R&D Systems, Inc. Space Import-Export srl, Milan Italy). The detection limits of the analyses (pg/ml) were <16 for IL-12 p70, <32 for TNF-α, <10 for IFN-γ and <3 for IL-4 and IL-10. For the numbering of the CD4^+ T cells producing cytokines, ELISPOT analysis was used on purified CD4^+ T spleen cells (9, 10). The results were expressed as the mean number of cells producing cytokines (±SE) per 10^5 cells, calculated using replicates of the serial cell dilutions.

Aspergillus conidia [8] = assay: Resistance to Aspergillus reinfection (i.v.) in cured BM-transplanted mice; format: in vivo; conditions: PTX3 concomitantly with primary infection; i.v. reinfection two weeks later; CFU 3 days after reinfection
Excerpt: FIG. 2 illustrates the effect of the administration of PTX3 on resistance to Aspergillus reinfection. BM-transplanted mice, generated as described in detail in the legend to FIG. 1, were infected intranasally with 2×10^7 Aspergillus conidia one week after the BM transplant and treated concomitantly with PTX3 at the doses and via the administration routes indicated, starting on the day of infection and continuing for the next 5 days. Two weeks after the infection the surviving mice were reinfected intravenously with 5×10^5 Aspergillus conidia. The fungal growth (CFU) in the kidneys was evaluated 3 days after reinfection. * Indicates P<0.05 (treated vs. untreated mice).
as §2

[9] = 1 mg/kg i.p., 3 days after infection, vs untreated control

PTX3: long pentraxin PTX3 purified by immunoaffinity chromatography from culture supernatants of CHO cells transfected with PTX3
time PTX3 levels were high in bronchoalveolar lavage fluids [1]: at least 24 h
numbers of CD4+ cells, CD8+ cells and Gr-1+ neutrophils in the lungs ([2]; 1 mg/kg i.p., FACS): significantly increased
recovery of neutrophils and, partly, of CD4+ T cells in the spleens ([2]; 1 mg/kg i.p., FACS): observed
absolute number of circulating neutrophils ([2]; blood leukocytes, data not shown): increased significantly
number of F4-80+ cells of the lungs or spleens ([2]; with or without PTX3 treatment): No difference
conidia-killing activity of the effector phagocytes (Aspergillus conidia [3]): higher
direct killing activity on the fungus (A. fumigatus [4]): ruled out any direct killing activity
expression of IFN-γ mRNA (IFN-γ and IL-4 mRNA): significantly increased
expression of IL-4 mRNA (IFN-γ and IL-4 mRNA): reduced
survival (A. fumigatus [5]; PTX3 administered after infection): increased the survival of the mice only at the higher dose
survival (A. fumigatus [5]; PTX3 administered prophylactically, any of the doses assayed): ≥ 60 days
fungal load in the lung (A. fumigatus [5]; after infection, both doses): significantly reduced
fungal load in the brain (A. fumigatus [5]; after infection, higher dose): significantly reduced
protective efficacy (A. fumigatus [5]; concomitantly with infection, 0.04 mg/kg): lost
fungal load in the lungs and brain (A. fumigatus [5]; prophylactic, particularly at highest dose (1 mg/kg), vs untreated): significantly reduced
lung pathology (A. fumigatus [6]): no evidence of parenchymal destruction or fungal growth; also recorded: improved
increase of IL-12 production [7, 9]: approximately 4 fold
production of IL-10 [7, 9]: halved
frequency of CD4+ Th1 cells in the spleen ([7]; ELISPOT): increased
frequency of cells producing IL-4 in the spleen ([7]; ELISPOT): reduced
production of IL-4 by spleen cells ([7]; antigen-stimulated spleen cell supernatants, suboptimal doses): greatly reduced
production of TNF-α ([7]; lungs of infected mice treated with PTX3): not increased
fungal growth in the kidneys of reinfected mice (Aspergillus conidia [8]): reduced

Source: US8778389B2, “Medicament for the treatment of fungal infections particularly aspergillosis” (Sigma-Tau Industrie Farmaceutiche Riunite S.p.A., priority 2004, dated 2014)
